According to patent publication US8802696B2, “7-([1,2,4]triazolo[1,5-a]pyridin-6-yl)-4-(3,4-dichlorophenyl)-1,2,3,4-tetrahydroisoqu inoli and use thereof” (Albany Molecular Research, Inc., priority 2009, dated 2014):
Counter-ions that a name gives are not always drawn.

Tests used:
hNET = target: T1, hNET (Homo sapiens, UniProt P23975); test: NET radioligand binding assay ([3H]nisoxetine, HEK-293 membranes); details: recombinant HEK-293 membranes
T1 construct: expressed in transfected cells; host or cells: HEK-293
Method: (§1) Recombinant HEK-293 cells expressing either the hSERT, hDAT, or hNET proteins were harvested from T-175 flasks as follows. The medium was removed from the flasks and the cells rinsed with HBSS without Ca and without Mg. The cells were then incubated for 5-10 minutes in 10 mM Tris-Cl, pH 7.5, 5 mM EDTA before the cells were lifted with a combination of pipetting and scraping, as needed. The cell suspension was collected into centrifuge bottles and homogenized for 30 seconds with a Polytron homogenizer. The suspension was centrifuged for 30 minutes at 32,000×g, 4° C. The supernatant was decanted and the pellet resuspended and homogenized in 50 mM Tris-Cl, pH 7.5, 1 mM EDTA for 10 seconds. […]
(§2) Compounds were dissolved in 100% DMSO at a concentration 100 times the desired highest assay concentration, serially diluted 1:3 in 100% DMSO, and 1.0 μl/well of each solution was dispensed to a Nunc polypropylene, round bottom, 384-well plate. […] The plates were air-dried overnight, 12 μl/well of MicroScint scintillation fluid added, and the plates counted in a Trilux.
(§3) The raw data was normalized to percent inhibition using control wells defining 0% (DMSO only) and 100% (selective inhibitor) inhibition which were run on each plate. […] The radioligand concentration chosen for each assay corresponds to the Kd concentration determined through saturation binding analysis for each assay.

SERT = test: Ex vivo binding occupancy assay, SERT ([3H]citalopram, brain tissue); details: dose 1 mg/kg, time point 3 hour, ex vivo binding in brain tissue
Excerpt: The general procedure for brain tissue collection and transporter occupancy assessment is briefly described as follows. Mice were sacrificed by asphyxiation in CO2, rats by decapitation and dogs by IV injection of euthanasia solution. For mice and rats, after the brains were removed from the skull, the forebrain tissue (removal of the brainstem and cerebellum) was used for SERT, NET, and DAT occupancy assessment. In dogs, the striatum was dissected for DAT occupancy and the remaining forebrain tissue (without the striatum, brainstem, and cerebellum) was used for SERT and NET occupancy assessment. The brain tissues were frozen in chilled isopentane and stored at −80° C. until homogenization.
The brain tissues were thawed and then homogenized using a polytron homogenizer (Kinematica). Sample aliquots were frozen immediately and stored at −80° C. Protein content was measured for each sample using a Coomassie protein assay kit (Pierce).
On the day of ex vivo binding for occupancy assessment, frozen sample aliquots were thawed and needle homogenized, and 100 μg of the tissue was incubated for SERT, NET, and DAT binding under assay conditions summarized in Table 1. […] Radioligand was measured using a Wallac Microbeta liquid scintillation counter.
The specific binding was calculated by subtracting the value of the non-specific binding from that of the total binding in each sample. […]

hDAT = target: T2, hDAT (Homo sapiens, UniProt Q01959); test: DAT radioligand binding assay ([125I]RTI-55, HEK-293 membranes); details: recombinant HEK-293 membranes
T2 construct: expressed in transfected cells; host or cells: HEK-293
Method: as §1
as §2, with “0.4” for “1.0”
as §3

hSERT = target: T3, hSERT (Homo sapiens, UniProt P31645); test: SERT radioligand binding assay ([125I]RTI-55, HEK-293 membranes); details: recombinant HEK-293 membranes
T3 construct: expressed in transfected cells; host or cells: HEK-293
Method: as §1, with “seconds. The suspension was then centrifuged again for 30 minutes at 32,000×g, 4° C. The supernatant was decanted and the pellet resuspended in 50 mM Tris-Cl, pH 7.5, 1 mM EDTA and briefly homogenized.” for “seconds.”
as §2, with “0.4” for “1.0”
The radioligand concentration chosen for each assay corresponds to the Kd concentration determined through saturation binding analysis for each assay.

T1 sequence (P23975 whole entry): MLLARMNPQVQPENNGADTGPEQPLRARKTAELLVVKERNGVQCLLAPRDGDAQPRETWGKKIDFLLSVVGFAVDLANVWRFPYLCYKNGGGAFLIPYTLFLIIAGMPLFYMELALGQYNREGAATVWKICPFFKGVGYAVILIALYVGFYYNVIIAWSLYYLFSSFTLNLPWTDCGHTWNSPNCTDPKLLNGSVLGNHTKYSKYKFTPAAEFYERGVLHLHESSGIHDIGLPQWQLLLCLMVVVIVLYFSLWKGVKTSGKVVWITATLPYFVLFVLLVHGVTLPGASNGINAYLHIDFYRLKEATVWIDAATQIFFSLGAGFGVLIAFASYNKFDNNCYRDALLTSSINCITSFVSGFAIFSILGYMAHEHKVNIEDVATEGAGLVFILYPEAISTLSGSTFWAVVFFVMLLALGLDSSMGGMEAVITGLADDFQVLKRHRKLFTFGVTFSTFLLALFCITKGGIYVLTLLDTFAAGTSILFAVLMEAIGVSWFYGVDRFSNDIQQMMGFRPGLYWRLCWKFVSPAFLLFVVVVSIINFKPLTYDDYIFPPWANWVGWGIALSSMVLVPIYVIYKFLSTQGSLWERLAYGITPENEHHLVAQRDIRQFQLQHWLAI
T3 sequence (P31645 whole entry): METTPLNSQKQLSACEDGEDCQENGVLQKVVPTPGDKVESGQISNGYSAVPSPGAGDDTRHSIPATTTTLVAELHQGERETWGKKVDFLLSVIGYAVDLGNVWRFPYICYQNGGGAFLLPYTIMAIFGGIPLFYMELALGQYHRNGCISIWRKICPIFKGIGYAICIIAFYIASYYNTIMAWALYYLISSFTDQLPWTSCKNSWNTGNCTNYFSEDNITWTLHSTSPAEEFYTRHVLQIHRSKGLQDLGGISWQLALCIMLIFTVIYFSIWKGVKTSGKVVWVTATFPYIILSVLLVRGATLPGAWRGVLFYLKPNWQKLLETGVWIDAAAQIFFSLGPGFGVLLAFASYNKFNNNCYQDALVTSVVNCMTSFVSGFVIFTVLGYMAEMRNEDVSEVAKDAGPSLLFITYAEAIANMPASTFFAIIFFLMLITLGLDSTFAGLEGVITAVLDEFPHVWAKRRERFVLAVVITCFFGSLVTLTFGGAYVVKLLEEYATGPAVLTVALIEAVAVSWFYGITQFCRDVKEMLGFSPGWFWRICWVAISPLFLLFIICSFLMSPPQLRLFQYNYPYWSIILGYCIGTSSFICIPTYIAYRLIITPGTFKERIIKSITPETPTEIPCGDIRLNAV
T2 sequence (Q01959 whole entry): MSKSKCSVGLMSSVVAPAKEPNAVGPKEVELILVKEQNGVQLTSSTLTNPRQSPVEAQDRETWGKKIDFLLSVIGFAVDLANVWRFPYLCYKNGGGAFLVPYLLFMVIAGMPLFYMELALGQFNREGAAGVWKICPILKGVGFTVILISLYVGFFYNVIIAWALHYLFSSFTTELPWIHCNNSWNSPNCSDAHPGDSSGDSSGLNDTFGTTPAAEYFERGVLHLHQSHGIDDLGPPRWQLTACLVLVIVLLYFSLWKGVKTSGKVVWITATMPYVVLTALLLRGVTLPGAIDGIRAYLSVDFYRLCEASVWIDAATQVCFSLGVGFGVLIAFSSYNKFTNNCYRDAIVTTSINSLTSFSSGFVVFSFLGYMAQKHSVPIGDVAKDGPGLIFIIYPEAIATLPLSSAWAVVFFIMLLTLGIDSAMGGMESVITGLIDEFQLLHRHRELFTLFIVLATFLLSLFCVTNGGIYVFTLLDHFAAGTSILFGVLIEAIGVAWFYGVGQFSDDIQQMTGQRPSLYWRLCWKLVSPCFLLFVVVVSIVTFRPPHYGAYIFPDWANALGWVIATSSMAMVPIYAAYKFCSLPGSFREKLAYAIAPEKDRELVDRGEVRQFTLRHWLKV

Structure (SMILES): Clc1ccc(C2CNCc3cc(-c4ccc5ncnn5c4)ccc32)cc1Cl (single isomer, unassigned; enantiomer 7) [Example 1 (+)-enantiomer, 7-([1,2,4]triazolo[1,5-a]pyridin-6-yl)-4-(3,4-dichlorophenyl)-1,2,3,4-tetrahydroisoquinoline, L-tartrate salt]
- IC50 (hNET): 26 nM
- SERT Occupancy % (SERT; L-tartrate salt): 75%
- IC50 (hDAT): 30.8 nM
- IC50 (hSERT): 1.8 nM

Structure (SMILES): Clc1ccc(C2CNCc3cc(-c4ccc5ncnn5c4)ccc32)cc1Cl (single isomer, unassigned; (-)) [Example 1 (−)-enantiomer, (−)-7-([1,2,4]triazolo[1,5-a]pyridin-6-yl)-4-(3,4-dichlorophenyl)-1,2,3,4-tetrahydroisoquinoline]
- IC50 (hNET): 4.8 nM
- SERT Occupancy % (SERT): 41%
- IC50 (hDAT): 105 nM
- IC50 (hSERT): 4.2 nM
